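Exposure lasted 48 hours, with cells grown in 96-well plates and compounds tested at five concentrations. At the TGI there is no net growth.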
Assays:
Assay in all cases: DTP human tumour cell line panel, 48 h
786-0 renal = system: 786-0 renal
A498 renal = system: A498 renal
A549 NSCLC = system: A549 NSCLC
ACHN renal = system: ACHN renal
BT-549 breast = system: BT-549 breast
CAKI-1 renal = system: CAKI-1 renal
CCRF-CEM leukemia = system: CCRF-CEM leukemia
COLO 205 colon = system: COLO 205 colon
DU-145 prostate = system: DU-145 prostate
EKVX NSCLC = system: EKVX NSCLC
HCC-2998 colon = system: HCC-2998 colon
HCT-15 colon = system: HCT-15 colon
HL-60(TB) leukemia = system: HL-60(TB) leukemia
HOP-62 NSCLC = system: HOP-62 NSCLC
HOP-92 NSCLC = system: HOP-92 NSCLC
HS 578T breast = system: HS 578T breast
HT29 colon = system: HT29 colon
IGROV1 ovarian = system: IGROV1 ovarian
K-562 leukemia = system: K-562 leukemia
KM12 colon = system: KM12 colon
LOX IMVI melanoma = system: LOX IMVI melanoma
MALME-3M melanoma = system: MALME-3M melanoma
MCF7 breast = system: MCF7 breast
MDA-MB-231 breast = system: MDA-MB-231 breast
MDA-MB-435 = system: MDA-MB-435
MDA-N = system: MDA-N
MOLT-4 leukemia = system: MOLT-4 leukemia
NCI-H226 lung = system: NCI-H226 lung
NCI-H23 lung = system: NCI-H23 lung
NCI-H460 lung = system: NCI-H460 lung
NCI-H522 lung = system: NCI-H522 lung
NCI/ADR-RES ovarian = system: NCI/ADR-RES ovarian
OVCAR-3 ovarian = system: OVCAR-3 ovarian
OVCAR-4 ovarian = system: OVCAR-4 ovarian
OVCAR-5 ovarian = system: OVCAR-5 ovarian
OVCAR-8 ovarian = system: OVCAR-8 ovarian
PC-3 prostate = system: PC-3 prostate
RPMI-8226 leukemia = system: RPMI-8226 leukemia
RXF 393 renal = system: RXF 393 renal
SF-268 CNS = system: SF-268 CNS
SF-295 CNS = system: SF-295 CNS
SF-539 CNS = system: SF-539 CNS
SK-MEL-2 melanoma = system: SK-MEL-2 melanoma
SK-MEL-28 melanoma = system: SK-MEL-28 melanoma
SK-MEL-5 melanoma = system: SK-MEL-5 melanoma
SK-OV-3 ovarian = system: SK-OV-3 ovarian
SN12C renal = system: SN12C renal
SNB-19 CNS = system: SNB-19 CNS
SNB-75 CNS = system: SNB-75 CNS
SR leukemia = system: SR leukemia
SW-620 colon = system: SW-620 colon
TK-10 renal = system: TK-10 renal
U251 CNS = system: U251 CNS
UACC-257 melanoma = system: UACC-257 melanoma
UACC-62 melanoma = system: UACC-62 melanoma
UO-31 renal = system: UO-31 renal

In the case of C=C1CC(CNc2cc(Cl)nc(N)n2)C1, the TGI (786-0 renal) is reported as > 100 µM, the TGI (A498 renal) is reported as 76.3 µM and the TGI (A549 NSCLC) is reported as > 100 µM. The TGI (ACHN renal) was > 100 µM, the TGI (BT-549 breast) was > 100 µM and the TGI (CAKI-1 renal) was > 100 µM. The TGI (CCRF-CEM leukemia) was > 100 µM, the TGI (COLO 205 colon) was > 100 µM and the TGI (DU-145 prostate) was > 100 µM. For the same compound, the TGI (EKVX NSCLC) was > 100 µM, the TGI (HCC-2998 colon) was > 100 µM and the TGI (HCT-15 colon) was > 100 µM. For the same compound, the TGI (HL-60(TB) leukemia) was > 100 µM, the TGI (HOP-62 NSCLC) was > 100 µM and the TGI (HOP-92 NSCLC) was > 100 µM. For the same compound, the TGI (HS 578T breast) was > 100 µM, the TGI (HT29 colon) was > 100 µM and the TGI (IGROV1 ovarian) was > 100 µM. The TGI (K-562 leukemia) was > 100 µM, the TGI (KM12 colon) was > 100 µM and the TGI (LOX IMVI melanoma) was > 100 µM. For the same compound, the TGI (MALME-3M melanoma) was > 100 µM, the TGI (MCF7 breast) was > 100 µM and the TGI (MDA-MB-231 breast) was > 100 µM. The TGI (MDA-MB-435) was > 100 µM, the TGI (MDA-N) was > 100 µM and the TGI (MOLT-4 leukemia) was > 100 µM. The TGI (NCI-H226 lung) was > 100 µM, the TGI (NCI-H23 lung) was > 100 µM and the TGI (NCI-H460 lung) was > 100 µM. For the same compound, the TGI (NCI-H522 lung) was > 100 µM, the TGI (NCI/ADR-RES ovarian) was > 100 µM and the TGI (OVCAR-3 ovarian) was > 100 µM. For the same compound, the TGI (OVCAR-4 ovarian) was > 100 µM, the TGI (OVCAR-5 ovarian) was > 100 µM and the TGI (OVCAR-8 ovarian) was > 100 µM. For the same compound, the TGI (PC-3 prostate) was > 100 µM, the TGI (RPMI-8226 leukemia) was > 100 µM and the TGI (RXF 393 renal) was > 100 µM. For the same compound, the TGI (SF-268 CNS) was > 100 µM, the TGI (SF-295 CNS) was > 100 µM and the TGI (SF-539 CNS) was > 100 µM. For the same compound, the TGI (SK-MEL-2 melanoma) was > 100 µM, the TGI (SK-MEL-28 melanoma) was > 100 µM and the TGI (SK-MEL-5 melanoma) was > 100 µM. The TGI (SK-OV-3 ovarian) was > 100 µM, the TGI (SN12C renal) was > 100 µM and the TGI (SNB-19 CNS) was > 100 µM. The TGI (SNB-75 CNS) was > 100 µM, the TGI (SR leukemia) was > 100 µM and the TGI (SW-620 colon) was > 100 µM. The TGI (TK-10 renal) was > 100 µM, the TGI (U251 CNS) was > 100 µM and the TGI (UACC-257 melanoma) was > 100 µM. The TGI (UACC-62 melanoma) was > 100 µM and the TGI (UO-31 renal) was > 100 µM.
